Reference: patent US20220023450A1, “BONE MARROW-, RETICULOE[…]-, AND/OR LYMPH NODE-TARGETED RA[…] AND METHODS OF THEIR DIAGNOSTIC AND […] USE” (Memorial Sloan Kettering Cancer Center, priority 2018, published 2022)
Where two headings read alike, the source gives them in different places.

Legend:
MDA-MB-468 tumor = experiment: Focal radiation therapy of tumor after GT3 administration; format: in vivo; details: 10 mg/kg GT3 prior to 11 Gy focal irradiation
Text: Though GT3 accumulation in the tumor is moderate, there is possibility that GT3 in the tumor might protect tumor during radiation therapy. On the contrary, there are several reports that tocotrienols suppress the proliferation of a wide variety of tumor cells in culture, such as MDA-MB-435, MCF-7, PC-3, LnCaP and DLD-1. Animal studies also have been shown that tocotrienol suppresses the growth of tumors such as 7,12-dimethylbenz(a)anthracene induced mammary tumor, HepG2, and PC-3. To address the question that GT3 protects tumors from irradiation, focal radiation therapy was performed to evaluate the effect of GT3 in the tumor when 10 mg/kg GT3 was administered prior to 11 Gy focal irradiation.

[1] = test system: peripheral blood cells (WBC, lymphocytes, platelets); experiment: Blood cell recovery after sub-lethal total body irradiation (4 Gy); format: in vivo, C57/BL6 mice
Protocol: GT3-Lipo treated 24 h before TBI, GT3-Lipo treated 24 h after TBI, BMT only and no treatment.
FIGS. 3A and 3B a plot of complete blood count (CBC) data showing white blood cell (WBC) recovery after total body irradiation (TBI) (4 Gy) (FIG. 3A), and a plot of lymphocyte recovery after TBI (4 Gy) (FIG. 3B). C57BL6 mice were divided into 4 groups (5 mice per group). (Filled circle) GT3-Lipo treated 24 h before TBI. (Open square) BMT-Lipo treated 24 h before TBI. (Filled square) GT3-Lipo treated 24 h after TBI. (Open circle) No treatment. 10 mg/kg/mice GT3 were treated via i.v. and blood was collected by retro-orbital bleeding on day 0, 1, 4, 7, 14, 21, 43, 57 and 99.
White blood cells (WBC), lymphocytes, and neutrophils decreased to less than 10% of baseline counts with a nadir at day 1-4, post irradiation. […] Recovery of GT3 treated groups reached 100% at day 43. For the untreated group, WBC and lymphocyte counts recovered about 60% at day 43 and WBC and lymphocyte counts never recovered to normal level until day 99. Neutrophil counts decreased to nadir on day 4 for GT3 treated and untreated groups. […] recovered on day 7 and remained relatively the same counts until day 99. Platelet counts increased on day 1 and decreased to nadir on day 14. Platelet counts were recovered to normal level at day 43 and remained the same level until day 99 in all groups.
6- to 8-week-old C57/BL6 mice (Jackson Lab., Bar Harbor, Me.) were used for bone marrow protection from total body irradiation studies. 10 mg/kg GT3 liposomes (6% mol) were administered via i.v. 24 h pre- and post-total body irradiation (4 Gy, […], dose rate=82 cGy/min). No supportive care was given to mice after irradiation. Approximately 100 μL of blood was collected by retro-orbital blood collection for complete blood cell counts at various time points for 100 days.

[2] = C57/BL6, mouse, in vivo
Protocol: Mice were sacrificed at the indicated time and major organs were collected and weighed. ^64Cu counting was done as soon as the organs were collected and ^3H counting was measured 5 days after mice were sacrificed. The % ID/g was calculated by measuring weight and time corrected measurement of radioactivity. n=5 per group.
For biodistribution studies, approximately 5.5 MBg of [^64Cu]-DOTA-Bz-DSPE-labeled liposome and 370 kBq of ^3H-GT3 incorporated liposome was intravenously administered to C57/BL6 athymic nude mice (n=5 per group) via tail vein injection. Mice were sacrificed at 24 or 48 h after injection and major organs were collected and placed in pre-weighed culture tubes or Eppendorf tubes. To collect bone marrow, the femur was dipped into liquid nitrogen and one of the epiphyses was carefully removed. A 30 mL syringe with gauge 30½ needles was inserted into one end of the femur; air was blown and bone marrow was collected in the same tubes for radioactivity counting in a gamma counter (PerkinElmer, Inc., Waltham, Mass.). For ^3H activity measurement, major organs were collected in pre-weighed scintillation vials and 500 uL of Soluene®-350 were added. After overnight incubation at 37° C., 4.5 mL of Ecoscint A were added, mixed well, and counted in scintillation counter. Data were presented as percent injected dose per gram (% ID/g) of tissue.

Structure (SMILES)	effect on tumor response to focal radiation (MDA-MB-468 tumor)	platelet counts compared with untreated group ([1]; 4 Gy TBI)	recovery of WBC and lymphocytes compared with untreated group ([1]; 4 Gy TBI, 10 mg/kg GT3 liposomes i.v. 24 h before or after TBI)	recovery of WBC and lymphocyte counts ([1]; day 43 after 4 Gy TBI, 10 mg/kg GT3 liposomes i.v.)	loss of active drug during the tissue targeting process [2]	Biodistribution, Marrow ([2]; 24 h)	Biodistribution, Spleen ([2]; 24 h)	Biodistribution, Marrow ([2]; 48 h)	Biodistribution, Spleen ([2]; 48 h)
CC(C)=CCC/C(C)=C/CC/C(C)=C/CC[C@]1(C)CCc2cc(O)c(C)c(C)c2O1 [GT3, (2R)-2,7,8-trimethyl-2-[(3E,7E)-4,8,12-trimethyltrideca-3,7,11-trienyl]-3,4-dihydrochromen-6-ol]	does not protect nor sensitize	no significant differences	faster and more complete	100%	–	–	–	–	–
CC(C)=CCC/C(C)=C/CC/C(C)=C/CC[C@]1(C)CCc2cc(O)c(C)c(C)c2O1 [[^3H]-GT3]	–	–	–	–	approximately 50%	4.28±1.57 % ID/g	7.95±1.63 % ID/g	7.44±2.81 % ID/g	8.26±1.86 % ID/g
